Experimental data from article PMC4140803 (PLoS ONE, 2014).
Read-outs that look alike come from different tables or passages of the source.

Key:
[1] = test system: C8166 cells; format: cell-based, human
Procedure: (§1) Cytotoxicity was assayed by MTT colorimetric reduction as previously described, [18]. Briefly, a serial concentration of FNC was added to a 96-well plate, followed by 100 µl 4×10^4 C8166 cells (5×10^5 cells for PBMC). After incubation at 37°C, 5% CO2 for 3 days (7 days for PBMCs), 20 µl MTT was added each well. After incubation for 4 hours, 100 µl supernatant was removed and 100 µl 20%SDS-50%DMF was added. The plate was incubated at 37°C overnight. The optical absorbance was measured by ELISA reader (ELx800, Bio-Tek, VT, USA) at 570 nm and 630 nm, and 50% cytotoxicity concentration (CC50) was calculated. 3TC and AZT were used as control.

[2] = test system: PBMC; format: cell-based, human
Procedure: C8166 cells were kindly donated by the Medical Research Council (MRC), the AIDS Reagent Project, U.K, and were maintained in RPMI-1640 with 10% FBS in humidified incubator with 5% CO2 at 37°C [16]. Peripheral blood mononuclear cells (PBMCs) were isolated from healthy donors by Ficoll-Hypaque density gradient centrifugation as described by the manufacturer’s instructions (Ethical Approval Number: SWYX-2011016). PBMCs were stimulated with 10% FBS, 5 µg/ml PHA and 50 U/ml IL-2 for three days before experiments.
as §1

[3] = test system: HIV-1KM018; experiment: Anti-HIV activity in vitro, PBMC; format: cell-based; details: for EC50: read-out: EC50s
Procedure: (§2) C8166 cells were infected with different HIV-1 or HIV-2 laboratory strains and resistant strains at different serial concentration compounds with multiplicity of infection (MOI) of 0.075∼0.6. PHA-stimulated PBMCs were incubated with different clinical strains in RPMI-1640 (with 10% FBS, 50 U/ml IL-2 and 2 µg/ml polybrene) at MOI of 0.1. After infection at 37°C in 5% CO2 for 2 hours, C8166 cells were washed three times to remove free viruses and re-suspended by RPMI-1640 (with 10% FBS). 100 µl 4×10^4 cells (5×10^5 cells for PBMC) were seeded each well in a 96-well plate with gradient concentration of FNC. The plate was placed in a humidified incubator at 37°C, 5% CO2. 3TC and AZT were used as control. After incubation of 3–7 days, the percentage inhibition of syncytia formation was scored or the level of p24 was measured by ELISA [19] and 50% effective concentration (EC50) were calculated.

[4] = test system: Wild type HIV-1IIIB; experiment: Anti-HIV activity / phenotypic analysis in C8166; format: cell-based; details: for EC50: Human immunodeficiency virus 1, C8166, wild type HIV-1IIIB; for FC, fold change, the ratio of EC50(Mut)/EC50(WT): wild type HIV-1IIIB (reference)
[5] = test system: FNCP-21 HIV-1 IIIB; experiment: Phenotypic analysis of resistant variants in C8166; format: cell-based; details: for FC, fold change, the ratio of EC50(Mut)/EC50(WT): FNCP-21 HIV-1 IIIB vs wild type HIV-1IIIB; for EC50: Human immunodeficiency virus 1, C8166, FNC-selected HIV-1IIIB at P-21
[6] = test system: 3TCP-21 HIV-1IIIB; experiment: Phenotypic analysis of resistant variants in C8166; format: cell-based; details: for FC, fold change, the ratio of EC50(Mut)/EC50(WT): 3TCP-21 HIV-1IIIB vs wild type HIV-1IIIB; for EC50: Human immunodeficiency virus 1, C8166, 3TC-selected HIV-1IIIB at P-21
[7] = test system: HIV-1RF; experiment: Anti-HIV activity in vitro, C8166; format: cell-based; details: Human immunodeficiency virus 1, subtype B
Procedure: as §2

[8] = test system: HIV-1_74V; experiment: Anti-HIV activity in vitro, C8166; format: cell-based; details: Human immunodeficiency virus 1, subtype B, NRTI-resistant
Procedure: as §2

[9] = test system: HIV-2CBL-20; experiment: Anti-HIV activity in vitro, C8166; format: cell-based; details: Human immunodeficiency virus 2; C8166, HIV-2CBL-20, subtype A
Procedure: as §2

[10] = test system: HIV-2ROD; experiment: Anti-HIV activity in vitro, C8166; format: cell-based; details: Human immunodeficiency virus 2, subtype A
Procedure: as §2

[11] = test system: HIV-1L10R/M46I/L63P/V82T/I84V; experiment: microbe, parasite or virus in culture; format: cell-based; details: Human immunodeficiency virus 1, C8166, read-out: EC50s
[12] = test system: pNL4-3 gp41 (36G) V38A/N42T; format: cell-based, HIV-1; details: C8166, pNL4-3 gp41 (36G) V38A/N42T, subtype B, FI-resistant
[13] = test system: HIV-1TC-1; experiment: Anti-HIV activity in vitro, PBMC; format: cell-based; details: Human immunodeficiency virus 1, HIV-1TC-1, CRF01AE, clinical strain
Procedure: as §2

[14] = test system: HIV-1WAN T69N; experiment: microbe, parasite or virus in culture; format: cell-based; details: for EC50: Human immunodeficiency virus 1, PBMC, HIV-1WAN T69N, CRF01AE, clinical strain
[15] = test system: HIV-1IIIB; experiment: Selection of drug-resistant HIV-1 variants and genotypic resistance assay; format: cell-based
[16] = test system: HIV-1; experiment: Anti-HIV activity in vitro, summary over HIV-1 strains; format: cell-based; details: Human immunodeficiency virus 1
Procedure: as §2

[17] = test system: HIV-2; experiment: Anti-HIV activity in vitro, summary over HIV-2 strains; format: cell-based; details: Human immunodeficiency virus 2; range over HIV-2 strains; read-out: EC50s on HIV-2
Procedure: as §2

[18] = test system: HIV-1; experiment: Activity assay with 50% human serum in C8166; format: cell-based; details: C8166, 50% human serum, data not shown
[19] = test system: HIV-1IIIB; experiment: Quantification of HIV-1 DNA species by real-time quantitative PCR; details: HIV-1IIIB infected C8166, 2 nM FNC or 2 µM 3TC
[20] = Human immunodeficiency virus 1, PBMC, HIV-1KM018, B/C recombinant, clinical strain

Row | Compound | EC50 [4] | FC, fold change, the ratio of EC50(Mut)/EC50(WT) [4] | FC, fold change, the ratio of EC50(Mut)/EC50(WT) [5] | EC50 [5] | FC, fold change, the ratio of EC50(Mut)/EC50(WT) [6] | EC50 [6] | CC50s ([1]; C8166 cells, MTT, 3 days) | CC50s ([2]; PBMC, MTT, 7 days) | EC50 [7] | EC50 [8] | EC50 [9] | EC50 [10] | EC50 [11] | EC50 [12] | EC50 [3, 20] | EC50 [13] | EC50 [14] | also measured
1 | Cc1cn([C@H]2C[C@H](N=[N+]=[N-])[C@@H](CO)O2)c(=O)[nH]c1=O [AZT, zidovudine] | 0.00939 ± 0.00122 µM | 1 | 1.31 | 0.0123 ± 0.00024 µM | 1.40 | 0.0131 ± 0.00243 µM |  |  |  |  |  |  |  |  |  |  |  | CC50s ([1]; human): 5090 ± 260 µM; CC50s ([2]; human): 845.31 ± 66.23 µM; EC50 ([3]; Human immunodeficiency virus 1, PBMC): 0.478 ± 0.0455 µM
2 | [N-]=[N+]=N[C@]1(CO)O[C@@H](n2ccc(N)nc2=O)[C@@H](F)[C@@H]1O [FNC, 2′-deoxy-2′-β-fluoro-4′-azidocytidine] | 0.00011 ± 2e-05 µM | 1 | 735 | 0.0808 ± 0.00814 µM | 232 | 0.0255 ± 0.00186 µM | 2380 ± 50 µM | 3.07 ± 0.23 µM | 0.03 ± 0.02 nM | 0.00011 ± 1e-05 µM | 0.025 ± 0.002 nM | 0.018 ± 0.006 nM | 0.00014 ± 1e-05 µM | 0.00036 ± 3e-05 µM | 0.00692 ± 0.00059 µM | 0.00034 ± 4e-05 µM | 0.00045 ± 9e-05 µM | suppressive effects fold stronger than 3TC ([3]; clinical strains in PBMC, first value of the sentence): 49 fold; suppressive effects fold stronger than 3TC ([14]; clinical strains in PBMC, second value of the sentence): 192 fold; inhibition at 0.0005 µM ([15]; Human immunodeficiency virus 1, HIV-1IIIB infected C8166, 500 pM FNC): > 99%; EC50 ([16]; range over HIV-1 strains, read-out: EC50s on HIV-1): 0.03 to 6.92 nM; EC50 ([16]; wild-type HIV-1IIIB and HIV-1RF, read-out: 50% effective concentration values (EC50)): 0.03 to 0.11 nM; EC50 [17]: 0.018 to 0.025 nM; EC50s against HIV-1 in presence of human serum [18]: unaffected; levels of ssDNA (strong-stop minus-strand DNA) ([19]; 1 h, 2 h and 4 h post-infection): significantly reduced; late RT level (full-length double-stranded DNA) ([19]; 4 h, 6 h and 8 h post-infection, P<0.01): significantly reduced
3 | Nc1ccn([C@@H]2CS[C@H](CO)O2)c(=O)n1 [3TC, lamivudine, reference compound] | 0.202 ± 0.0341 µM |  |  | 124 µM |  | 690 µM | 930 ± 190 µM | 825.98 ± 30.52 µM | 350 ± 206 nM | 0.243 ± 0.0101 µM | 319 ± 29.8 nM | 257 ± 43.6 nM | 0.416 ± 0.0118 µM | 0.386 ± 0.0362 µM | 0.34 ± 0.0122 µM | 0.0517 ± 0.00308 µM | 0.0865 ± 0.011 µM | inhibition at 1 µM ([15]; Human immunodeficiency virus 1, C8166): > 99%
